Values belong to the compound of their own block, whether it stands above or below them.
Assays:
[1] = Half life in dog at 1 mg/kg, iv; format: ADME, organism-based, Canis lupus familiaris; set-up: dose 1 mg/kg, route intravenous; settings: in vivo
[2] = Clearance in cynomolgus monkey at 1 mg/kg, iv; format: ADME, organism-based, Macaca fascicularis; set-up: dose 1 mg/kg, route intravenous; settings: in vivo
in vivo [3] = settings: Sprague-Dawley, rat, iv, 1 mg/kg
[4] = Oral bioavailability in rhesus monkey at 5 mg/kg; format: ADME, organism-based, Macaca mulatta; settings: in vivo
[5] = Volume of distribution at steady state in rhesus monkey at 1 mg/kg, iv; format: ADME, organism-based, Macaca mulatta; set-up: dose 1 mg/kg, route intravenous; settings: in vivo, read-out: Vdss
[6] = Half life in rhesus monkey at 1 mg/kg, iv; format: ADME, organism-based, Macaca mulatta; set-up: dose 1 mg/kg, route intravenous; settings: in vivo
in vivo [7] = settings: Sprague-Dawley, rat, po, 10 mg/kg
[8] = Clearance in rhesus monkey at 1 mg/kg, iv; format: ADME, organism-based, Macaca mulatta; set-up: dose 1 mg/kg, route intravenous; settings: in vivo
[9] = Oral bioavailability in cynomolgus monkey at 5 mg/kg; format: ADME, organism-based, Macaca fascicularis; settings: in vivo
[10] = Volume of distribution at steady state in cynomolgus monkey at 1 mg/kg, iv; format: ADME, organism-based, Macaca fascicularis; set-up: dose 1 mg/kg, route intravenous; settings: in vivo, read-out: Vdss
[11] = Volume of distribution at steady state in mouse at 1 mg/kg, iv; format: ADME, organism-based; set-up: dose 1 mg/kg, route intravenous; settings: in vivo, read-out: Vdss
[12] = Oral bioavailability in dog at 3 mg/kg; format: ADME, organism-based, Canis lupus familiaris; settings: in vivo
[13] = Clearance in mouse at 1 mg/kg, iv; format: ADME, organism-based; set-up: dose 1 mg/kg, route intravenous; settings: in vivo
[14] = Half life in rabbit at 1 mg/kg, iv; format: ADME, organism-based, Oryctolagus cuniculus; set-up: dose 1 mg/kg, route intravenous; settings: in vivo
[15] = Oral bioavailability in mouse at 10 mg/kg; format: ADME, organism-based; settings: in vivo
[16] = Volume of distribution at steady state in dog at 1 mg/kg, iv; format: ADME, organism-based, Canis lupus familiaris; set-up: dose 1 mg/kg, route intravenous; settings: in vivo, read-out: Vdss
[17] = Oral bioavailability in rabbit at 5 mg/kg; format: ADME, organism-based, Oryctolagus cuniculus; settings: in vivo
[18] = Volume of distribution at steady state in rabbit at 1 mg/kg, iv; format: ADME, organism-based, Oryctolagus cuniculus; set-up: dose 1 mg/kg, route intravenous; settings: in vivo, read-out: Vdss
[19] = Clearance in dog at 1 mg/kg, iv; format: ADME, organism-based, Canis lupus familiaris; set-up: dose 1 mg/kg, route intravenous; settings: in vivo
in vivo [20] = settings: Sprague-Dawley, rat, iv, 1 mg/kg; remark: listed apart in the source
[21] = Half life in cynomolgus monkey at 1 mg/kg, iv; format: ADME, organism-based, Macaca fascicularis; set-up: dose 1 mg/kg, route intravenous; settings: in vivo
[22] = Half life in mouse at 1 mg/kg, iv; format: ADME, organism-based; set-up: dose 1 mg/kg, route intravenous; settings: in vivo
[23] = Half life in Sprague-Dawley rat at 1 mg/kg, iv administered as bolus dose; format: ADME, organism-based; set-up: dose 1 mg/kg, route intravenous; settings: in vivo
[24] = Clearance in rabbit at 1 mg/kg, iv; format: ADME, organism-based, Oryctolagus cuniculus; set-up: dose 1 mg/kg, route intravenous; settings: in vivo

half-life [1]: 4.6 h | clearance [2]: 10 mL/min/kg | Vd (in vivo [3]): 9.3 L/kg | bioavailability [4]: 23% | Vd [5]: 5.9 L/kg | half-life [6]: 3.2 h | bioavailability (in vivo [7]): 6% | clearance [8]: 30 mL/min/kg | bioavailability [9]: 17% | Vd [10]: 1.6 L/kg | Vd [11]: 6 L/kg | bioavailability [12]: 24% | clearance [13]: 133 mL/min/kg | half-life [14]: 2.4 h | bioavailability [15]: 6% | Vd [16]: 16.2 L/kg | bioavailability [17]: 5% | Vd [18]: 6.4 L/kg | clearance [19]: 63.3 mL/min/kg | clearance (in vivo [20]): 123 mL/min/kg | half-life [21]: 5.6 h | half-life [22]: 1.4 h | half-life [23]: 4.8 h | clearance [24]: 53.3 mL/min/kg
Structure (SMILES): Cc1ccc(S(=O)(=O)N2CCNC(=O)[C@H]2CC(=O)N[C@@H]2CCCc3cc(CN4CCCCC4)ccc32)cc1

Vd (in vivo [3]): 9.9 L/kg | clearance (in vivo [20]): 90 mL/min/kg
Structure (SMILES): O=C(C[C@@H]1C(=O)NCCN1S(=O)(=O)c1ccccc1)N[C@@H]1CCCc2cc(CN3CCCCC3)ccc21

Vd (in vivo [3]): 11.9 L/kg | bioavailability (in vivo [7]): 19% | clearance (in vivo [20]): 112 mL/min/kg
Structure (SMILES): O=C(C[C@@H]1C(=O)NCCN1S(=O)(=O)c1ccc(Cl)cc1)N[C@@H]1CCCc2cc(CN3CCCCC3)ccc21

Structure (SMILES): Cc1ccc(S(=O)(=O)N2CCNC(=O)[C@H]2CC(=O)N[C@@H]2CCCc3cc(CNC(C)(C)C)ccc32)cc1
Vd (in vivo [3]): 8.34 L/kg | bioavailability (in vivo [7]): 0.3% | clearance (in vivo [20]): 56.7 mL/min/kg

Structure (SMILES): Cc1ccc(S(=O)(=O)N2CCNC(=O)[C@H]2CC(=O)N[C@@H]2CCCc3cc(CNCC(C)(C)C)ccc32)cc1
Vd (in vivo [3]): 3.4 L/kg | bioavailability (in vivo [7]): 16% | clearance (in vivo [20]): 30 mL/min/kg

— ChEMBL document CHEMBL1777801, “3-Oxo-2-piperazinyl acetamides as potent bradykinin B1 receptor antagonists for the treatment of pain and inflammation” (Bioorg Med Chem Lett, 2011)
